The record followed here is patent publication US20050142581A1, “Microrna as ligands and target molecules” (priority 2003, published 2005).

Oligonucleotides are written 5' to 3', each unit as a sugar letter and its base; * is a phosphorothioate linkage, no mark a phosphodiester; rarer units and linkages stand in square brackets, end groups in braces. Plain capitals give the bases only. e = 2'-O-(2-methoxyethyl) (MOE); [5mC] = 5-methylcytosine; d = 2'-deoxy (DNA)

The subject of one series is human CD40 mRNA. In words: Inhibition of CD40 mRNA levels by oligonucleotides (real-time RT-PCR). Details: concentration or dose not given beside the values. Particulars: 2'-MOE gapmers, 18 nucleotides, phosphorothioate throughout; averaged from three experiments. Type of series: cell-based. As for the experimental part: When cells reach about 80% confluency, they are treated with oligonucleotide. For cells grown in 96-well plates, wells are washed once with 200 μl Opti-MEM-1 reduced-serum medium (Life Technologies) and then treated with 130 μl of Opti-MEM-1 containing 3.75 μg/ml LIPOFECTIN (Life Technologies) and the desired oligonucleotide at a final concentration of 150 nM. After 4 hours of treatment, the medium was replaced with fresh medium. Cells were harvested 16 hours after oligonucleotide treatment.
Poly(A)+ mRNA was isolated according to Miura et al. (Clin. Chem., 1996, 42, 1758). Briefly, for cells grown on 96-well plates, growth medium was removed from the cells and each well was washed with 200 ul cold PBS. 60 ul lysis buffer (10 mM Tris-HCl, pH 7.6, 1 mM EDTA, 0.5 M NaCl, 0.5% NP-40, 20 mM vanadyl-ribonucleoside complex) was added to each well, the plate was gently agitated and then incubated at room temperature for five minutes. 55 ul of lysate was transferred to Oligo d(T) coated 96 well plates (AGCT Inc., Irvine, Calif.). Plates were incubated for 60 minutes at room temperature, washed 3 times with 200 ul of wash buffer (10 mM Tris-HCl pH 7.6, 1 mM EDTA, 0.3 M NaCl). After the final wash, the plate was blotted on paper towels to remove excess wash buffer and then air-dried for 5 minutes. 60 ul of elution buffer (5 mM Tris-HCl pH 7.6), preheated to 70° C. was added to each well, the plate was incubated on a 90° hot plate for 5 minutes, and the eluate then transferred to a fresh 96 well plate. Cells grown on 100 mm or other standard plates may be treated similarly, using appropriate volumes of all solutions.
Quantitation of CD40 mRNA levels was determined by real-time PCR (RT-PCR) using the ABI PRISM 7700 Sequence Detection System (PE-Applied Biosystems, Foster City, Calif.) according to manufacturer's instructions. This is a closed-tube, non-gel-based, fluorescence detection system which allows high-throughput quantitation of polymerase chain reaction (PCR) products in real-time.
As opposed to standard PCR, in which amplification products are quantitated after the PCR is completed, products in RT-PCR are quantitated as they accumulate. This is accomplished by including in the PCR reaction an oligonucleotide probe that anneals specifically between the forward and reverse PCR primers, and contains two fluorescent dyes. A reporter dye (e.g., JOE or FAM, PE-Applied Biosystems, Foster City, Calif.) is attached to the 5′ end of the probe and a quencher dye (e.g., TAMRA, PE-Applied Biosystems, Foster City, Calif.) is attached to the 3′ end of the probe. When the probe and dyes are intact, reporter dye emission is quenched by the proximity of the 3′ quencher dye. During amplification, annealing of the probe to the target sequence creates a substrate that can be cleaved by the 5′-exonuclease activity of Taq polymerase.
With each cycle, additional reporter dye molecules are cleaved from their respective probes, and the fluorescence intensity is monitored at regular (six-second) intervals by laser optics built into the ABI PRISM 7700 Sequence Detection System. In each assay, a series of parallel reactions containing serial dilutions of mRNA from untreated control samples generates a standard curve that is used to quantitate the percent inhibition after antisense oligonucleotide treatment of test samples.
RT-PCR reagents were obtained from PE-Applied Biosystems, Foster City, Calif. RT-PCR reactions were carried out by adding 25 ul PCR cocktail (1× Taqman buffer A, 5.5 mM MgCl2, 300 uM each of dATP, dCTP and dGTP, 600 uM of dUTP, 100 nM each of forward primer, reverse primer, and probe, 20 U RNAse inhibitor, 1.25 units AmpliTaq Gold, and 12.5 U MuLV reverse transcriptase) to 96 well plates containing 25 ul poly(A) mRNA solution. […]
Regarding “19241 (antisense eG*eG*eT*eG*dC*dC*dC*dT*dT*dC*dT*dG*dC*dT*eG*eG*eA*e[5mC]) [compound 19241]”, the “% Inhibition (Inhibition of CD40 mRNA Levels by Chimeric Phosphorothioate Oligonucleotides)” value (“% Inhibition” for short) was determined as 78.91%.

In the case of “19251 (antisense eG*eA*eG*e[5mC]*dG*dG*dT*dG*dC*dA*dG*dG*dA*dC*eA*e[5mC]*eA*eG) [compound 19251]”, the “% Inhibition” value stood at 50.15%.

On to “19229 (antisense eT*e[5mC]*eA*e[5mC]*dT*dC*dA*dC*dC*dA*dG*dT*dT*dT*e[5mC]*eT*eG*eT) [compound 19229]”, for which the “% Inhibition” value came to 40.64%.

For “19213 (DNA eA*eG*eG*eT*dG*dA*dG*dA*dC*dC*dA*dG*dG*dC*eG*eG*e[5mC]*eA; antisense) [compound 19213]”, the “% Inhibition” value came to 80.82%. With “19239 (antisense eG*eG*eT*eT*dG*dG*dG*dG*dT*dC*dG*dC*dA*dG*eT*eA*eT*eT) [compound 19239]”, the “% Inhibition” value came to 19.40%.

On to “19218 (DNA eG*eA*e[5mC]*eA*dG*dC*dG*dG*dT*dC*dA*dG*dC*dA*eA*eG*e[5mC]*eA; antisense) [compound 19218]”, for which the “% Inhibition” value amounted to 67.21%. As to “19277 (eA*e[5mC]*e[5mC]*eA*dG*dC*dA*dC*dC*dA*dA*dG*dA*dG*eG*eA*eT*eG; antisense) [compound 19277]”, the “% Inhibition” value was 3.48%. As to “19268 (e[5mC]*eT*eG*eT*dT*dG*dC*dA*dC*dA*dA*dC*dC*dA*eG*eG*eT*e[5mC]; antisense) [compound 19268]”, the “% Inhibition” value was found to be 82.32%. In the case of “19215 (DNA eG*e[5mC]*eA*eG*dA*dG*dG*dC*dA*dG*dA*dC*dG*dA*eA*e[5mC]*e[5mC]*eA; antisense) [compound 19215]”, the “% Inhibition” value came to 45.97%. Consider “19227 (antisense e[5mC]*eT*eG*eT*dC*dC*dT*dG*dG*dC*dT*dG*dG*dC*eA*e[5mC]*eA*eA) [compound 19227]”, for which the “% Inhibition” value turned out to be 24.37%. On the same count and under the same terms, as for “19275 (eG*eG*eG*eA*dT*dC*dA*dC*dC*dA*dC*dC*dA*dG*eG*eG*e[5mC]*eT; antisense) [compound 19275]”, the figure is 57.94%; as for “19212 (DNA eG*eA*e[5mC]*e[5mC]*dA*dG*dG*dC*dG*dG*dC*dA*dG*dG*eA*e[5mC]*e[5mC]*eA; antisense) [compound 19212]”, 77.23%; as for “19281 (eG*eT*e[5mC]*eG*dG*dG*dA*dA*dA*dA*dT*dT*dG*dA*eT*e[5mC]*eT*e[5mC]; antisense) [compound 19281]”, 54.78%.

Take “19289 (e[5mC]*eT*e[5mC]*eT*dT*dT*dG*dC*dC*dA*dT*dC*dC*dT*e[5mC]*e[5mC]*eT*eG; antisense) [compound 19289]”: the “% Inhibition” value was found to be 41.84%.

“19266 (eT*eT*eG*eG*dT*dC*dT*dC*dA*dC*dA*dG*dC*dT*eT*eG*eT*e[5mC]; antisense) [compound 19266]”: the “% Inhibition” value is 45.92%. Still for that read-out and setting: the result for “19267 (e[5mC]*eA*eG*eG*dT*dC*dT*dT*dT*dG*dG*dT*dC*dT*e[5mC]*eA*e[5mC]*eA; antisense) [compound 19267]” reads 63.95%; that for “19252 (antisense eA*eA*eG*e[5mC]*dC*dG*dG*dG*dC*dG*dA*dG*dC*dA*eT*eG*eA*eG) [compound 19252]”, 32.36%. Regarding “19259 (antisense eG*eA*e[5mC]*eT*dG*dG*dG*dC*dA*dG*dG*dG*dC*dT*e[5mC]*eG*e[5mC]*eA) [compound 19259]”, the “% Inhibition” value is on record as 82.00%. Consider “19245 (antisense eA*e[5mC]*eA*eG*dG*dT*dG*dC*dA*dG*dA*dT*dG*dG*eT*eG*eT*e[5mC]) [compound 19245]”, for which the “% Inhibition” value worked out at 73.31%.

As for “19265 (e[5mC]*eA*e[5mC]*eA*dG*dC*dT*dT*dG*dT*dC*dC*dA*dA*eG*eG*eG*eT; antisense) [compound 19265]”, the “% Inhibition” value is 0.00%. On to “19225 (antisense e[5mC]*eT*eG*eG*dC*dA*dC*dA*dA*dA*dG*dA*dA*dC*eA*eG*e[5mC]*eA) [compound 19225]”, for which the “% Inhibition” value is 60.11%.

The series is the same for the next values; noted with them: oligodeoxynucleotides with phosphorothioate backbones throughout; averages from three experiments.
As for “18696 (DNA dT*dG*dG*dA*dG*dC*dC*dA*dG*dG*dA*dA*dG*dA*dT*dC*dG*dT; antisense) [compound 18696]”, the “% INHIB. (Inhibition of CD40 mRNA Levels by Phosphorothioate Oligodeoxynucleotides)” value stood at 0.00%. With “18643 (DNA dA*dC*dT*dC*dT*dG*dT*dG*dC*dA*dG*dT*dC*dA*dC*dT*dC*dA; antisense) [compound 18643]”, the “% INHIB. (Inhibition of CD40 mRNA Levels by Phosphorothioate Oligodeoxynucleotides)” value is given as 0.00%. Still for that read-out and setting: the result for “18638 (DNA dT*dC*dC*dT*dG*dG*dC*dT*dG*dG*dC*dA*dC*dA*dA*dA*dG*dA; antisense) [compound 18638]” reads 0.00%; that for “18657 (DNA dA*dC*dA*dG*dG*dT*dG*dC*dA*dG*dA*dT*dG*dG*dT*dG*dT*dC; antisense) [compound 18657]”, 0.00%; that for “18655 (DNA dG*dT*dG*dT*dC*dT*dG*dT*dT*dT*dC*dT*dG*dA*dG*dG*dT*dG; antisense) [compound 18655]”, 0.00%.

As to “18673 (DNA dG*dA*dT*dG*dA*dC*dA*dC*dA*dT*dT*dG*dG*dA*dG*dA*dA*dG; antisense) [compound 18673]”, the “% INHIB. (Inhibition of CD40 mRNA Levels by Phosphorothioate Oligodeoxynucleotides)” value amounted to 0.00%. Same read-out and setting: the result for “18681 (DNA dG*dT*dT*dT*dG*dT*dG*dC*dC*dT*dG*dC*dC*dT*dG*dT*dT*dG; antisense) [compound 18681]” reads 2.43%.

For “18634 (DNA dG*dT*dG*dG*dG*dT*dG*dG*dT*dT*dC*dT*dG*dG*dA*dT*dG*dG; antisense) [compound 18634]”, the “% INHIB. (Inhibition of CD40 mRNA Levels by Phosphorothioate Oligodeoxynucleotides)” value amounted to 0.00%. Consider “18703 (DNA dG*dG*dT*dG*dC*dA*dG*dC*dC*dT*dC*dA*dC*dT*dG*dT*dC*dT; antisense) [compound 18703]”, for which the “% INHIB. (Inhibition of CD40 mRNA Levels by Phosphorothioate Oligodeoxynucleotides)” value turned out to be 0.00%. For the substance “18671 (DNA dG*dA*dC*dT*dG*dG*dG*dC*dA*dG*dG*dG*dC*dT*dC*dG*dC*dA; antisense) [compound 18671]”, the “% INHIB. (Inhibition of CD40 mRNA Levels by Phosphorothioate Oligodeoxynucleotides)” value is on record as 2.71%. Still for that read-out and setting: the result for “18705 (DNA dC*dT*dT*dC*dT*dG*dC*dC*dT*dG*dC*dA*dC*dC*dC*dC*dT*dG; antisense) [compound 18705]” reads 0.00%; that for “18667 (DNA dG*dT*dA*dT*dC*dA*dG*dA*dA*dA*dC*dC*dC*dC*dT*dG*dT*dA; antisense) [compound 18667]”, 0.00%; that for “18675 (DNA dT*dC*dG*dA*dA*dA*dG*dC*dA*dG*dA*dT*dG*dA*dC*dA*dC*dA; antisense) [compound 18675]”, 0.00%.
